Source: patent publication US20160106102A1, “KNOWN AND NEW HETEROCYCLIC COMPOUNDS AS PEST CONTROL AGENTS” (BAYER CROPSCIENCE AKTIENGESELLSCHAFT, priority 2013, published 2016)

Tests used:
Myzus persicae [1] = assay: Myzus persicae - spray test; assay type: in vivo; details: application rate of 500 g/ha; after 6 days; sprayed Chinese cabbage leaf discs infested by all stages; 100% = all aphids killed
Summary of the method: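 Chinese cabbage leaf discs infested with all stages of green peach aphid sprayed with compound in acetone/DMF formulation with alkylaryl polyglycol ether emulsifier, diluted in emulsifier-containing water. Efficacy (% aphids killed) assessed after 6 days.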

Phaedon cochleariae = Phaedon cochleariae - spray test (PHAECO); assay type: in vivo; details: application rate of 500 g/ha; after 7 days; larvae of the mustard beetle on sprayed Chinese cabbage leaf discs; 100% = all larvae killed
Description: Phaedon cochleariae—Spray Test (PHAECO)
(§1) Solvent: 78.0 parts by weight of acetone • • 1.5 parts by weight of dimethylformamide
(§2) Emulsifier: alkylaryl polyglycol ether
(§3) To produce an appropriate active ingredient formulation, 1 part by weight of active ingredient is dissolved using the specified parts by weight of solvent and made up with water containing an emulsifier concentration of 1000 ppm until the desired concentration is attained. To produce further test concentrations, the preparation is diluted with emulsifier-containing water.
Discs of Chinese cabbage leaves (Brassica pekinensis) are sprayed with an active ingredient formulation of the desired concentration and, after drying, populated with larvae of the mustard beetle (Phaedon cochleariae).
After 7 days, the efficacy in % is determined. 100% means that all the beetle larvae have been killed; 0% means that no beetle larvae have been killed.

Spodoptera frugiperda = Spodoptera frugiperda - spray test (SPODFR); assay type: in vivo; details: application rate of 500 g/ha; after 7 days; armyworm caterpillars on sprayed maize leaf discs; 100% = all caterpillars killed
Description: Spodoptera frugiperda—Spray Test (SPODFR)
as §1, §2, §3
Leaf discs of maize (Zea mays) are sprayed with an active ingredient formulation of the desired concentration and, after drying, populated with caterpillars of the armyworm (Spodopterafrugiperda).
After 7 days, the efficacy in % is determined. 100% means that all the caterpillars have been killed; 0% means that no caterpillars have been killed.

Myzus persicae [2] = assay: Myzus persicae - sachet test; assay type: in vivo; details: 100% = all animals killed
Summary of the method: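 Active ingredient dissolved with 2% N-methylpyrrolidone and 2% diacetone alcohol, diluted in water, then pipetted into nutrient medium. Plate sealed and paired with a plate carrying green peach aphids. Kill in % scored after the set time (100% = all dead, 0% = none dead).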

[3] = log P determination by LC-MS in the acidic range; assay type: physicochemical
Excerpt: The LC-MS determination in the acidic range is effected at pH 2.7 using 0.1% aqueous formic acid and acetonitrile (contains 0.1% formic acid) as eluents, linear gradient from 10% acetonitrile to 95% acetonitrile. Alternatively, the determination is effected in the acidic range at pH 2.3 using 0.1% aqueous phosphoric acid and acetonitrile as eluents; linear gradient from 10% acetonitrile to 95% acetonitrile.

Tetranychus urticae = Tetranychus urticae - spray test, OP-resistant (TETRUR); assay type: in vivo; details: application rate of 500 g/ha; after 6 days; bean leaf discs infested by all stages; 100% = all spider mites killed
Description: Tetranychus urticae—spray test, OP-resistant (TETRUR)
as §1, §2, §3
Discs of bean leaves (Phaseolus vulgaris) infested by all stages of the greenhouse red spider mite (Tetranychus urticae) are sprayed with an active ingredient formulation of the desired concentration.
After 6 days, the efficacy in % is determined. 100% means that all the spider mites have been killed; 0% means that no spider mites have been killed.

[4] = application rate of 6 ppm in nutrient medium
[5] = application rate of 30 ppm in nutrient medium
[6] = Table 2, compounds of the formula (I-2), acidic range pH 2.7 or pH 2.3

Compound	log P (acid) ([3]; LC-MS in the acidic range)	log P (acid) [3, 6]	efficacy in % (Myzus persicae [1])	efficacy in % (Phaedon cochleariae)	efficacy in % (Spodoptera frugiperda)	efficacy (kill in %) (Myzus persicae [2]; [4])	efficacy (kill in %) (Myzus persicae [2]; [5])	efficacy in % (Tetranychus urticae)
Cc1cc(N(C(=O)c2cccnc2)C(=O)c2cccc(Cl)c2)nn1C(=O)c1cccc(Cl)c1 [Compound I-1-22]	3.98		100%	83%	83%	100%	100%	
O=C(Nc1ccn(-c2ncccc2Cl)n1)c1cccnc1 [Compound I-1-48]	1.25			100%	100%		100%	
Cc1cc(NC(=O)c2cccnc2)nn1C(=O)C(C)C [Compound I-1-130]	1.95		90%	100%	100%	100%	100%	
CCC(CC)n1nc(NC(=O)c2cccnc2)cc1C [Compound I-1-210]	1.92						80%	90%
Cc1cc(NC(=O)c2cccnc2)nn1Cc1noc(C(=O)N(C)C)n1 [Compound I-1-286]	1.03		100%			100%	100%	
Cc1cc(NC(=O)c2cccnc2)nn1C(=O)NC(C)C [Compound I-1-287]	1.46		90%			100%	100%	
CCS(=O)(=O)N(C)C(=O)n1nc(NC(=O)c2cccnc2)cc1C [Compound I-1-289]	1.5		90%			100%	100%	
Cc1cc(NC(=O)c2cccnc2)nn1C(=O)N(C)C [Compound I-1-291]	0.86		90%			100%	100%	
CNC(=O)n1nc(NC(=O)c2cccnc2)cc1C [Compound I-1-292]	0.97		100%			100%	100%	
Cc1cc(NC(=O)c2cccnc2)nn1Cc1nccn1C [Compound I-1-293]	−0.21		90%			100%	100%	
Cc1cc(NC(=O)c2cccnc2)nn1Cc1cscn1 [Compound I-1-295]	0.95		100%			100%	100%	
Cc1nnc(Cn2nc(NC(=O)c3cccnc3)cc2C)s1 [Compound I-1-296]	0.83		90%			100%	100%	
Cc1cc(NC(=O)c2cccnc2)nn1Cc1ccc(Cl)s1 [Compound I-1-297]	2.07		90%				100%	
Cc1cc(NC(=O)c2cccnc2)nn1Cc1cc(C(=O)N(C)C)no1 [Compound I-1-298]	1.09		90%			100%	100%	
Cc1cc(NC(=O)c2cccnc2)nn1Cc1ncnn1-c1ccccc1 [Compound I-1-304]	1.32		100%			100%	100%	
Cc1cc(NC(=O)c2cccnc2)nn1C(=O)NCC[S+](C)[O-] (stereo not drawn) [Compound I-1-308]	0.84		90%			100%	100%	
Cc1cc(NC(=O)c2cccnc2)nn1C(=O)NCC1COCCO1 (stereo not drawn) [Compound I-1-310]	1.2		100%			100%	100%	
Cc1cc(NC(=O)c2cccnc2)nn1C(=O)NCC1CCCO1 (stereo not drawn) [Compound I-1-311]	1.45		90%				100%	
Cc1cc(NC(=O)c2cccnc2)nn1C(=O)NC1CC1 [Compound I-1-312]	1.27		90%			100%	100%	
Cc1cc(NC(=O)c2cccnc2)nn1C(=O)NCC1CCCCO1 (stereo not drawn) [Compound I-1-313]	1.78		90%			100%	100%	
CCCNC(=O)n1nc(NC(=O)c2cccnc2)cc1C [Compound I-1-314]	1.56		90%			100%	100%	

Second part, led by results:

log P (acid) ([3]; LC-MS in the acidic range)	log P (acid) [3, 6]	Compound	efficacy in % (Myzus persicae [1])	efficacy in % (Phaedon cochleariae)	efficacy in % (Spodoptera frugiperda)	efficacy (kill in %) (Myzus persicae [2]; [4])	efficacy (kill in %) (Myzus persicae [2]; [5])	efficacy in % (Tetranychus urticae)
1.83		CCC(C)NC(=O)n1nc(NC(=O)c2cccnc2)cc1C (stereo not drawn) [Compound I-1-317]	90%			100%	100%	
2.18		CCCC(C)NC(=O)n1nc(NC(=O)c2cccnc2)cc1C (stereo not drawn) [Compound I-1-318]	90%			100%	100%	
1.89		Cc1cc(NC(=O)c2cccnc2)nn1C(=O)NCC(C)C [Compound I-1-320]	90%			100%	100%	
2.19		Cc1cc(NC(=O)c2cccnc2)nn1C(=O)NCC(C)(C)C [Compound I-1-321]	100%			100%	100%	
0.88		Cc1cc(NC(=O)c2cccnc2)nn1C(=O)NCc1ccccn1 [Compound I-1-329]	90%			100%	100%	
0.64		Cc1cc(NC(=O)c2cccnc2)nn1C(=O)NCc1cccnc1 [Compound I-1-330]	90%			100%	100%	
1.29		Cc1cc(NC(=O)c2cccnc2)nn1C(=O)NC(C)c1ncccn1 (stereo not drawn) [Compound I-1-333]	90%			100%	100%	
1.67		Cc1cc(NC(=O)c2cccnc2)nn1C(=O)NC(C)(C)c1ncccn1 [Compound I-1-335]	90%			100%	100%	
1.43		Cc1cc(C)nc(CNC(=O)n2nc(NC(=O)c3cccnc3)cc2C)n1 [Compound I-1-338]	90%			100%	100%	
1.82		Cc1cc(NC(=O)c2cccnc2)nn1Cc1nc2ccc(Cl)cc2o1 [Compound I-1-342]	90%			100%	100%	
1.24		Cc1cc(NC(=S)c2cccnc2)nn1Cc1ncccn1 [Compound I-1-344]	100%			100%	100%	
1.11		Cc1cc(NC(=O)c2cccnc2)nn1C(=O)c1ncccn1 [Compound I-1-345]	90%			100%	100%	
0.63		Cc1cc(N(C)C(=O)c2cccnc2)nn1Cc1ncccn1 [Compound I-1-346]	100%	100%		100%	100%	
1.23		CCc1nn2c(=O)cc(Cn3nc(NC(=O)c4cccnc4)cc3C)nc2s1 [Compound I-1-352]	90%				100%	
	1.13	COc1ccc([N+](=O)[O-])cc1Cn1cnc(NC(=O)c2cccnc2)n1 [Compound I-2-4]	90%				100%	
	0.00	COc1nc(NC(=O)c2cccnc2)nn1C [Compound I-2-16]	90%				100%	
